The text below walks through data of PMC10065799, “High-throughput profiling of sequence recognition by tyrosine kinases and SH2 domains using bacterial peptide display” (eLife, 2023).

One assay has as its system Fer kinase domain. The assay is described as follows: pTyr-Var library bacterial peptide display kinase screen (enrichment scores). The format is biochemical, mouse. The conditions noted are these: sheet "Fer"; value of the variant peptide against its reference peptide in the pTyr-Var library screen with Fer.
For the sequence KRNSLYSFSDH [CCDC82_Y331_Q327R], the Screen is -2.294.
Turning to GHLFAYDWIRI [BEST1_Y227_S231R_YF], the Screen is reported as -0.2857.
IGEVVYQWAVM [GRIN2A_Y502_R504W] came in with a Screen of 2.434.
As to FDGGCYEQLFV [MC4R_Y41_S36Y_YF], the Screen is given as 0.1035.
With QRPFVYFFSFL [PTEN_Y176_R173P_YF], the Screen is on record as -0.4962.
Still for that read-out and setting: under PDSVDYPKKGF [CTSK_Y121_R122P_YF] stands 0.978.
Sequence VDSAHYQLLET [DTX3L_Y385_K386Q] had a Screen of 3.227.
Regarding TTGGFYSFGGG [KRT24_Y120_A115T_YF], the Screen is -0.6603.
In turn, HESEIYGKVCF [CSRP3_Y57_C58G_YF] returned a Screen of 1.394.
For INQGPYENHSV [ATP6V1B1_Y462_R465H], the Screen stood at 4.636.
Sequence GGMTEYELVVV [KRAS_Y4_K5E] gave a Screen of 4.104.

Staying with this assay, now noted: sheet "Fer"; variant peptide relative to its reference peptide, pTyr-Var library screen enrichment.
Sequence KEAQVYQAFRL [SUCLG2_Y343_K347R] had a Screen of 0.58.
For KFDLMYAKRAF [TUBA3E_Y399_W402R], the Screen is -3.735.
In the case of LPVHFYSHVEH [PYGM_Y204_G205S], the Screen is given as -0.5676.
For the sequence CSEEMYCLMLQ [RET_Y981_R982C], the Screen worked out at 3.517.

The next assay relates to EPHB1 kinase domain. Described as above. The following applies: sheet "EPHB1"; variant seq vs reference seq; bacterial peptide display enrichment. The format is biochemical, human.
For the sequence RRIHSYRCHLW [VHL_Y112_G114C], the “Screen (variant relative to reference peptide, measured in the pTyr-Var library screen)” value was -1.413.
Same read-out and setting: under RRIHRYRGHLW [VHL_Y112_S111R] stands -1.747; under RRIHSYRGHVW [VHL_Y112_L116V], -1.04.

Still in this assay, the particulars now being: sheet EPHB1; effect of the variant peptide relative to its reference peptide in the pTyr-Var library screen (enrichment scores).
On to DGQVNYEELVQ [CALM1_Y139_F142L], for which the Screen was -0.5322.
In the case of RHPEVYHHLGI [NVL_Y290_V295I], the Screen came to 0.1225.
In the case of HGQVNYEEFVQ [CALM2_Y139_D134H], the Screen stood at 1.863.
The same measure, in the same setting: under DGQVNYEGFVQ [CALM1_Y139_E141G] stands -0.1972.
Consider VRFVDYVLFRS [FAM189B_Y361_S358F], for which the Screen is reported as 1.362.
In the case of RRNEEYCLLAS [ITK_Y198_D202A], the Screen is listed as -0.2034.
Consider PLQHVYKIGGI [EEF1A2_Y254_D252H], for which the Screen is -0.7167.
IFSGIYFKPES [L2HGDH_Y102_H98Y_YF] had a Screen of 0.7253.

In a further assay the target is T1, c-Abl kinase domain (Mus musculus, UniProt P00520).
T1 sequence (P00520 242-493 limits assumed): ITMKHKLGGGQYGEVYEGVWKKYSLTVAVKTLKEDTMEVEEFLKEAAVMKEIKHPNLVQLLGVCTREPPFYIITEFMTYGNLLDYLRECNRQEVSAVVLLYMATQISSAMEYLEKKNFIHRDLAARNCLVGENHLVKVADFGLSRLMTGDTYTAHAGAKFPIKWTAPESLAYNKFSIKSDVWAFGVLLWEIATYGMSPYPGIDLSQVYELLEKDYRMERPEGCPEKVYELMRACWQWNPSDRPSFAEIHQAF
The assay is described as above. The class given is biochemical. The conditions noted are these: fig5-data2, sheet "Abl"; Screen for the variant/reference peptide pair, pTyr-Var library.
The sequence RLLRGYNQSAF [HLA-C_Y137_D138N_YF] showed a Screen of 1.149.
Same read-out and setting: with KAIMTYVFSFF [ACTN4_Y260_S262F_YF] the figure was -1.213; with GKVADYIPQLP [GLS_Y249_A254P], 0.08452; with KICDWYQRQRP [KRT14_Y151_R148C], 1.628.
Regarding DPHECYAKVFN [ALB_Y394_D399N], the Screen is -0.4574.
NNFGNYNNQSS [HNRNPA1_Y318_D314N] yielded a Screen of 1.57.
In the case of ERIELYELDKK [PMM2_Y145_F144L], the Screen is 0.1245.
Consider KNEVLYDEENH [ARFGEF1_Y314_G316E], for which the Screen was -0.7157.
On the same count and under the same terms, with DFTSRYLSASD [PKHD1_Y828_N830S] the figure was 0.6568; with TGNPAYRSFSN [IL4R_Y497_A492T], 1.02; with SARVRYLMAEK [LDHB_Y173_F171V], 1.358.
In the case of DCLASYLDKVR [KRT14_Y129_R125C], the Screen was determined as 1.479.
Turning to PDSVDYPKKGF [CTSK_Y121_R122P_YF], the Screen is reported as -1.054.
Sequence IKKLIYVFLVI [JAGN1_Y42_H44Y_YF] had a Screen of 0.0101.
Still for that read-out and setting: under LMQAEYWHDPI [PPT1_Y185_V181M] stands 0.6191; under QHVPDYRQNGF [PCDHGA10_Y895_V899G_YF], 0.583; under HHFAAYFQQGD [GPI_Y351_R347H], 0.4221.
As to EPAVLYNLKER [MYH7_Y103_D107E], the Screen is given as -0.8606.
In the case of IVLRSYPASDH [NID2_Y449_G453D], the Screen is recorded as 0.09357.
For LEIETYRRLRD [KRT12_Y429_L433R], the Screen was determined as 0.7498.
VIKDKYPKAHF [APTX_Y209_R213H_YF] came in with a Screen of 0.3442.
The same measure, in the same setting: under GITTGYLVLKE [DNMT3B_Y588_A585T] stands 1.643.
Sequence TLPAFYMENFS [GLB1_Y552_G554E] returned a Screen of 0.2401.
Turning to QQLQGYVPSNF [FRK_Y99_I100V_YF], the Screen was found to be 0.6322.
AFQGKYTPSGQ [ALDOA_Y343_C339Y_YF]: the Screen is -0.08587.
Still for that read-out and setting: under WDLTDYLMKIL [ACTB_Y188_R183W] stands 1.288; under IWGKKYPTCNS [PTPRZ1_Y53_N48I], 0.4141; under TSQSQYSSFRE [CCDC170_Y323_F324S], 2.786.
Turning to EDAHHYLCKEV [JAK2_Y382_A377E], the Screen is -1.246.
Turning to GVSFIYTIDGS [DCX_Y105_R102S_YF], the Screen was -0.05601.

The assay is the same for the next values; noted with them: sheet "Abl"; effect of variant peptide relative to its reference peptide in pTyr-Var library screen (enrichment).
For the sequence CDFKKYGKGLR [ZNF445_Y433_Y428C_YF], the Screen was 1.206.
Consider FSALDYKIFFF [WDPCP_Y210_L205F_YF], for which the Screen is on record as -1.647.
RGKDNYETSQL [SPP1_Y225_S224N] registered a Screen of 0.8642.
Still for that read-out and setting: with LSEEKYELKEG [TREM1_Y29_T25S] the figure was -1.268.
Still for that read-out and setting: with EEETDYTPVWC [UROD_Y30_G25E] the figure was 0.6447.
As for RLDGEYFTLQI [TP53_Y327_P322R], the Screen stood at 0.2276.
In turn, LMFPDYLPCSV [SAG_Y129_T125M] displayed a Screen of 0.9994.
Turning to VKPENYRRLDV [VHL_Y175_I180V], the Screen was -5.31.
Consider TDTAAYEERLR [SPTB_Y474_V478L], for which the Screen is -0.2404.

In the next assay the target is c-Src kinase domain (Homo sapiens, UniProt P12931). Described as above. The conditions noted are these: sheet "Src"; effect of the variant peptide relative to its reference peptide in the pTyr-Var library screen. The format is biochemical.
With TTPAVYARVTK [CTRB2_Y246_A250T], the Screen was 0.6652.
The same measure, in the same setting: with PQAVTYATVKH [LILRB4_Y360_K362T] the figure was 2.009.
As to KRNSLYSFSDH [CCDC82_Y331_Q327R], the Screen was -1.645.
In the case of PLRAFYLIARV [HLCS_Y635_D634Y_YF], the Screen is 1.953.
As for IGEVVYQWAVM [GRIN2A_Y502_R504W], the Screen is listed as -0.09777.
In turn, EPFEVYRIVPE [IRF8_Y110_K108E_YF] had a Screen of 2.655.
In the case of FDGGCYEQLFV [MC4R_Y41_S36Y_YF], the Screen is reported as 0.4972.
As to KCLAVYQAGAR [APOE_Y180_R176C], the Screen was 2.645.
Sequence PDSVDYPKKGF [CTSK_Y121_R122P_YF] came in with a Screen of 2.065.
As for TTGGFYSFGGG [KRT24_Y120_A115T_YF], the Screen is given as -0.1401.
As for LKLKAYRFSIS [LCT_Y974_V971L], the Screen is given as 1.678.
Take HESEIYGKVCF [CSRP3_Y57_C58G_YF]: the Screen was -0.5157.
As to DLEKTYNTFRS [B4GALNT2_Y538_A533D_YF], the Screen is given as -0.01989.
Still for that read-out and setting: with PNRILYGDFWQ [MYH6_Y717_R721W] the figure was -0.3786; with FQKNSYSEELR [LMNA_Y211_I210S], -2.048; with LLTALYFISWG [KCNH2_Y780_R784W], 0.3693.
Consider STLEVYRCHPP [IL21R_Y317_S318R], for which the Screen is -1.75.
As for PLQHVYKIGGI [EEF1A2_Y254_D252H], the Screen is -2.182.
Sequence LERFIYNPEEF [HLA-DPB1_Y59_R61P_YF] registered a Screen of 0.2405.
With TSQSQYSSFRE [CCDC170_Y323_F324S], the Screen is listed as -1.483.
Regarding IIEDPYFGNDF [ACP1_Y132_S137F_YF], the Screen is given as 0.7844.
Regarding IFSGIYFKPES [L2HGDH_Y102_H98Y_YF], the Screen is 0.7627.
With GVSFIYTIDGS [DCX_Y105_R102S_YF], the Screen is 0.9806.

The same assay, now with this note: sheet "Src"; variant peptide versus its reference peptide in the pTyr-Var library screen.
As to HFVFFYSFLLK [PTEN_Y178_R173H_YF], the Screen was 0.679.
Regarding NDENIYKGLPD [VAV3_Y141_D139N], the Screen was 1.088.
LWQTIYNLEAE [TNNT2_Y251_S249T]: the Screen stood at 0.4505.
For PLDAEYFTLQI [TP53_Y327_G325A], the Screen is 0.1358.
Consider KEAQVYQAFRL [SUCLG2_Y343_K347R], for which the Screen stood at 0.6304.
On the same count and under the same terms, with RLDGEYFTLQI [TP53_Y327_P322R] the figure was -0.8354; with KFDLMYAKRAF [TUBA3E_Y399_W402R], -2.285; with MSGDVYSTDFF [NTRK2_Y702_R699G_YF], 0.7528.
Take FFFDLYGGEKF [PTPN11_Y66_D61Y_YF]: the Screen is listed as -1.282.
As for RRIHSYRCHLW [VHL_Y112_G114C], the Screen is -2.304.
As for CSEEMYCLMLQ [RET_Y981_R982C], the Screen is listed as 1.894.
Same read-out and setting: under SPPEVYAIMRG [NTRK1_Y757_C752S] stands 0.1672; under GRDVIYKGFED [NFU1_Y194_G190R], -0.4839; under LCHELYNTIRD [PBRM1_Y54_V49L], 1.3.
Turning to RRIHRYRGHLW [VHL_Y112_S111R], the Screen is reported as -2.928.
Sequence KFDLMYAKLAF [TUBA1A_Y399_R402L] registered a Screen of 2.907.
The same measure, in the same setting: with KSDVMYTDWKK [ORM1_Y175_V174M] the figure was -1.392.
Take ERDTVYSSSGV [NELL2_Y350_N347D]: the Screen is listed as 1.43.
Consider RRIHSYRGHVW [VHL_Y112_L116V], for which the Screen was -1.808.
With SILTVYSKDNF [PANK2_Y400_A398T_YF], the Screen is -1.709.
For the sequence NFFDLYGGEKF [PTPN11_Y66_D61N_YF], the Screen is given as -0.03521.
The sequence SVTCTYSLALN [TP53_Y126_P128L] showed a Screen of 1.349.
The sequence KVALLYKPFFF [POLE_Y100_P99L_YF] showed a Screen of 1.635.
